Test results published in PubChem BioAssay AID743417 (Broad Institute, 2014).
Inconclusive results are not listed. Activity calls are given as the source filed them.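 Rule for the calls: active = compounds lowering the luciferase signal with a fitted half-maximal dose at most twice their top valid dose (cut at about 30 µM in these data); inconclusive = flat fits with moderate signal loss, or poor fits; inactive = the rest.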

Test system: Clone20 osteoblast Shn3 3'UTR firefly luciferase, 24 h
Test: Schnurri-3 3'UTR-luciferase signal suppressors – cell-based, Clone20 osteoblasts, luminescence, dry powder, set 2, dose response (AID 743417)

SMILES | AC50
CC(C)C(=O)NC(c1cccc([N+](=O)[O-])c1)c1ccc2cccnc2c1O (configuration not stated) | 2.57 µM
CCCC(=O)NC(c1ccc(C(C)C)cc1)c1ccc2cccnc2c1O (configuration not stated) | 0.47 µM
Cc1nnc(NC(=O)c2nc(S(=O)(=O)Cc3ccccc3C)ncc2Cl)s1 | 0.812 µM
CCN(CC)S(=O)(=O)c1cc(NC(=O)C2CCN(c3ncnc4sc(C)c(C)c34)CC2)ccc1Cl | 5.08 µM
O=c1c2ccccc2nc(/C=C/c2ccc([N+](=O)[O-])o2)n1-c1ccc(O)cc1 | 3.24 µM
Fc1ccc2[nH]c3c(N4CCN(c5ccccc5)CC4)ncnc3c2c1 | 3.78 µM
Cc1ccc(C)c(N2CCN(C(=O)CCS(=O)(=O)c3ccc4c(c3)NC(=O)C(C)S4)CC2)c1 (configuration not stated) | 4.47 µM
NC(c1csc(NC(=O)Nc2cccc(C(F)(F)F)c2)n1)C1CCCCC1 (configuration not stated) | 4.81 µM
CC(C)C[C@@H](CN1CCCC1CN1C(=S)NC[C@@H]1Cc1ccc(O)cc1)N1C[C@H](Cc2ccc(O)cc2)N(CC2CCCCCC2)C1=S (some centres not stated) | 18.8 µM
O=C(/C(=C/c1ccc(Cl)cc1)c1nc2ccccc2[nH]1)c1cccs1 | 2.66 µM
O=[N+]([O-])c1c(Nc2cccc(O)c2)cc(Cl)c2nonc12 | 0.683 µM
CCOC(=O)c1oc2ccc(S(=O)(=O)n3nc(-c4ccc(OC)cc4)cc3N)cc2c1C | 1.99 µM
CCOc1ccc(CN(C)c2ccc(S(=O)(=O)N3CCN(C)CC3)cc2[N+](=O)[O-])cc1OC | 3.38 µM
CN(Cc1ccc(Cl)c(Cl)c1)C(=O)c1cccc(S(=O)(=O)N2CCN(Cc3ccccc3)CC2)c1 | 3.47 µM
COc1cc2cc(C(=O)N3CC(COS(C)(=O)=O)c4ccc(O)cc43)[nH]c2c(OC)c1OC (configuration not stated) | < 0.26 µM
CCOc1cc(CNCCc2ccc(S(N)(=O)=O)cc2)ccc1OCc1ccc(Cl)cc1 | 3.87 µM
CCOc1ccc(S(=O)(=O)N(C)c2ccc(OCC(=O)Nc3nc4ccccc4s3)cc2)cc1 | 2.82 µM
Cc1ccc(NC(=O)Cc2nn(C)c(=O)c3ccccc23)cc1F | 0.73 µM
COc1cccc(NC(=O)c2nc(S(C)(=O)=O)ncc2Cl)c1 | 0.834 µM
CC(C)(C)n1ncc2c(=O)n(Cc3cccc(Cn4cnc5c(cnn5C(C)(C)C)c4=O)c3F)cnc21 | 1.09 µM
O=C(Nc1ccc(Cl)c(Cl)c1)c1cccc(S(=O)(=O)NCc2cccnc2)c1 | 5.39 µM
O=C(c1cc(COc2ccc3ncccc3c2)on1)N1CCCCCC1 | 0.703 µM
O=C(Nc1ccc([N+](=O)[O-])cc1)Nc1ccc(OC(F)F)c(Cl)c1 | 3.59 µM
Cc1ccnc2c1ccc1c(C)ccnc12 | 0.857 µM
O=S1(=O)C=C(Sc2nc3cc(Cl)ccc3o2)c2ccccc21 | < 0.26 µM
COc1ccc(CC(N)c2csc(NC(=O)c3cc(C(C)(C)C)nn3Cc3ccccc3)n2)cc1 (configuration not stated) | 9.53 µM

SMILES | AC50
Cc1cc(C)c(C(N)=O)c(SCC(=O)c2cc(C)n(-c3cc(C)on3)c2C)n1 | 0.942 µM
CCC(C)c1ccc(S(=O)(=O)N2CCN(C(=O)c3ccc(Cl)c(S(=O)(=O)N4CCOCC4)c3)CC2)cc1 (configuration not stated) | 5.32 µM
COc1cccc(-c2nc(NC3CCCC3)c3ccccc3n2)c1O | 25 µM
Cc1cc2sc3ccc(C#CC4(O)CCCCC4)cc3c(=O)c2cc1C | < 0.26 µM
CC(C)(C)C(=O)N1CCN(c2ccc(NC(=O)c3ccc([N+](=O)[O-])o3)cc2)CC1 | 2.45 µM
CCOC(=O)c1cnc(-n2nc(C)cc2C)nc1NNc1nc(-c2ccccc2)cc(-c2ccccc2)n1 | 3.84 µM
COc1cc(NC(=O)COc2cc(O)c3c(c2)OC(C)(C)CC3=O)cc(OC)c1OC | 0.354 µM
CC(C)CCNc1nc(N)c([N+](=O)[O-])c(N2CCCCCC2)n1 | 8.79 µM
CN(C)CCNC(=O)c1ccc(Cl)c2cc3ccccc3nc12 | 9.85 µM
CCc1nnc(NC(=O)c2cccc(C(=O)Nc3nnc(CC)s3)n2)s1 | 1.45 µM
CC(C)(C)c1cc(C(c2cccnc2)N2CCN(CCO)CC2)cc(C(C)(C)C)c1O (configuration not stated) | 1.7 µM
Cc1ccc(Oc2c(C(N)=O)cc([N+](=O)[O-])cc2[N+](=O)[O-])cc1 | 11.9 µM
C=C1C(=O)C23CCC4C(C)(C(=O)OC)CCCC4(C)C2CCC1(O)C3 (configuration not stated) | 0.976 µM
CCCCN1CC(COCc2ccccc2)Oc2cccc(Oc3ccc(C)cc3)c2S1(=O)=O (configuration not stated) | 10.7 µM
C=CCn1c(C)cc(C2=NNC(=NCC)SC2)c1C | < 0.26 µM
C=C1C(=O)OC2CC(C)C3C=CC(=O)C3(C)C(O)C12 (configuration not stated) | < 0.26 µM
CC(=O)OCCCNc1cc(Sc2ccc(Cl)cc2)c2nonc2c1[N+](=O)[O-] | 1.14 µM
COc1ccc2c(c1)c(CC(=O)Nc1cc(C)ccc1C)c(C)n2C(=O)c1ccc(Cl)cc1 | 5.69 µM
COc1ccc(-c2cc3nc(C)n(N)c(=O)c3s2)cc1 | 1.13 µM
Cc1cc(C)c2sc(NNC(=O)c3ccc(S(=O)(=O)N4CCc5ccccc5C4)cc3)nc2c1 | 1.8 µM
CCS(=O)(=O)c1ccc2oc(SCC(=O)N3CCCCC3)nc2c1 | > 70 µM (inactive)
COc1ccc(CCN2CCC(Nc3nc4ccccc4n3Cc3ccc(F)cc3)CC2)cc1 | 3.03 µM
CCCCCCCN(c1ccccc1)[C@@H]1C[C@H]2CCCC(=O)N3CC[C@@H](C1)[C@@H]23 | 11.5 µM
O=C(O)C1(Nc2ccccc2Cl)CCCC1 | 29.5 µM
COc1ccc(C)c2sc(N(CCCN(C)C)C(=O)c3ccc(S(=O)(=O)N4CCc5ccccc5C4)cc3)nc12 | 4.4 µM
CCC(OC(=O)c1ccc(S(C)(=O)=O)c([N+](=O)[O-])c1)C(=O)NC1C2CC3CC(C2)CC1C3 (configuration not stated) | 1.66 µM

SMILES | AC50
CCOC(=O)c1c2c(n(Cc3ccccc3)c1C)C(=O)C(=O)c1ccccc1-2 | 2.3 µM
CCOC(=O)C1CCN(c2cc3c(cc2NC(=O)c2ccccc2Br)n(C)c(=O)n3C)CC1 | 21.3 µM
O=C(NCc1ccc2c(c1)OCO2)c1nc(S(=O)(=O)Cc2ccccc2)ncc1Cl | 6.4 µM
O=C(Nc1ccc(F)c(F)c1)c1ccc(F)c(S(=O)(=O)N2CCC3(CC2)OCCO3)c1 | 12.2 µM
CC(C)(C)n1nnnc1C(c1ccc(C(F)(F)F)cc1)N(Cc1ccccc1)Cc1ccco1 (configuration not stated) | 4.74 µM
CCCCCCNC(=O)O[C@H]1Cn2c(=O)ccc(=O)n2[C@@H]2CN(S(=O)(=O)c3ccc(C)cc3)C[C@]12O | 14.1 µM
C=CCC[C@H](Cc1ccc(F)cc1)C(=O)OC[C@H](Cc1c[nH]c2ccccc12)NC(=O)[C@@H](CC=C)CC(=O)N[C@H](CO)Cc1ccccc1 | 4.44 µM
c1ccc(-c2cc3nc(NCC4CC4)nc(NCC4CCCCC4)c3s2)cc1 | 2.67 µM
CCc1ccc(Nc2n[n+](-c3ccccc3)c(-c3c(Cl)cccc3Cl)s2)cc1 | 5.4 µM
O=C1CC(Sc2nnnn2-c2ccccc2)C(=O)N1c1cccc(Cl)c1 (configuration not stated) | 8.53 µM
CCCCC(=O)NC(c1ccc(OC)cc1)c1ccc2cccnc2c1O (configuration not stated) | 2.28 µM
Cc1cc(O)c(C(C)C)cc1C1(c2cc(C(C)C)c(O)cc2C)OC(=O)c2ccccc21 | 9.45 µM
Cc1ccc(NC(=O)C2=C(c3ccccc3)S(=O)(=O)CCS2(=O)=O)cc1 | 0.558 µM
COC(=O)c1ccc(N2CCN(S(=O)(=O)c3ccc(C)cc3)CC2)c([N+](=O)[O-])c1 | 3.88 µM
COc1ccc(NC(=O)CCOc2cc(C)ccc2C)cc1S(=O)(=O)N1CCCCC1 | 10.4 µM
O=C(CSc1c2c(nc3ccc(Cl)cc13)CCCC2)NCc1ccco1 | 5.71 µM
CCC(CC)CC1CN2CCc3cc(OC)c(OC)cc3C2CC1(O)CC (configuration not stated) | 2 µM
C=CCC[C@H](Cc1ccc(F)cc1)C(=O)OC[C@H](Cc1c[nH]c2ccccc12)NC(=O)[C@H](CC=C)CC(=O)N(CCO)Cc1ccccc1 | 11.7 µM
Cc1cccc(C)c1NC(=O)c1nc(S(=O)(=O)Cc2ccccc2)ncc1Cl | 4.33 µM
C=C1CC2(OC1=O)c1ccccc1CCc1ccccc12 | 1.28 µM
CC1Sc2ccc(S(=O)(=O)N3CCC(C(=O)Nc4ccc(Cl)cc4)CC3)cc2NC1=O (configuration not stated) | 2.42 µM
CC(=O)OC1(C)CC(C)C(=O)C(C(O)CC2CC(=O)NC(=O)C2)C1 (configuration not stated) | < 0.26 µM
COc1ccc(Cn2c(SCc3cc(C)ccc3C)nc3cc(OC)c(OC)cc3c2=N)cc1 | 7.91 µM
C=CCOC(=O)C1=C(C)N=C2SCCC(=O)N2C1c1cccs1 (configuration not stated) | > 70 µM (inactive)
Cc1cccc(CSc2cccc3cccnc23)c1 | 2.54 µM
O=C(Nc1nc(-c2ccccn2)cs1)c1ccc(F)c(S(=O)(=O)N2CCOCC2)c1 | 1.32 µM

SMILES | AC50
CC(=O)c1ccc(NC(=O)C(C)OC(=O)/C=C/c2ccco2)cc1 (configuration not stated) | 9.12 µM
Cc1ccc(C(c2cc(Cl)c3cccnc3c2O)N2CCN(C)CC2)cc1 (configuration not stated) | 5.54 µM
CC(C)NS(=O)(=O)c1ccc(CCC(=O)Nc2cc(Cl)ccc2Oc2ccccc2)cc1 | 7.65 µM
Cc1ccc(Cn2c(=N)n(CC(O)COc3ccccc3)c3ccccc32)cc1 (configuration not stated) | 2.46 µM
Cc1ccc(S(=O)(=O)Nc2ccc(O)c3ncccc23)cc1 | 1.55 µM
O=C(C1=C[C@@H](C2CC2)C[C@@H](OCCCCO)O1)N1CCN(Cc2ccccc2)CC1 | > 70 µM (inactive)
CC(C)(C)OC(=O)NCc1ccc(CNC(=O)c2nc[nH]c2C(=O)NCc2ccc(CNC(=O)OC(C)(C)C)cc2)cc1 | 5.89 µM
Cc1cccc(-c2noc(CN(C(=O)C(c3ccccc3)c3ccccc3)C(C)C)n2)c1 | 6.27 µM
CCCc1nnc(NC(=O)c2nc(S(=O)(=O)Cc3cccc(C)c3)ncc2Cl)s1 | 2.55 µM
Cc1ccccc1OCCOC(=O)c1cc(S(=O)(=O)N2CCCCC2)ccc1N1CCOCC1 | 3.79 µM
CC(Oc1cccc(Br)c1)C(=O)NNC(=O)c1ccccn1 (configuration not stated) | 3.36 µM
COC(=O)[C@]1(C)CCC[C@@]2(C)C3CC[C@@]4(C)C[C@]3(CCC21)CC(=O)N4Cc1ccc(OC)cc1 (some centres not stated) | 8.16 µM
O=C(Nc1nc2c(F)cc(F)cc2s1)c1ccccn1 | 6.69 µM
O=S(=O)(Nc1cc(Sc2ncn[nH]2)c(O)c2ccccc12)c1ccccc1 | 7.55 µM
CC(=O)Oc1ccc(OC(C)=O)c(SCCCCCCl)c1 | 2.58 µM
O=C(c1cccc(S(=O)(=O)N2CCN(c3ccccc3)CC2)c1)N1CCCC(C(F)(F)F)C1 (configuration not stated) | 2.68 µM
O=C(Cc1ccc(Cl)cc1Cl)Nc1ccncc1Cl | 1.63 µM
CC(C)C[C@H]1CN=C(N(C)C)N1CC1CCCCCC1 | 5.03 µM
O=C(NNC(=S)Nc1ccc(Cl)c(Cl)c1)c1ccccn1 | 2.33 µM
CCOc1ccc(-c2nnc(N3CCCCC3)c3ccccc23)cc1 | 14.9 µM
c1ccc(CC2CCN(c3ncnc4sccc34)CC2)cc1 | 0.362 µM
C[C@H](NC(=O)c1ncn2c1c(=O)[nH]c1ccc(Br)cc12)c1ccccc1 | 8.76 µM
CC(C)C[C@H](N)c1nnc(S(=O)(=O)Cc2ccc(F)cc2)o1 | 9.02 µM
CCCN1C(=O)S/C(=C\c2ccc(N3CCOCC3)o2)C1=O | 6.37 µM
